Source: patent US11613533B2, “Compounds useful for inhibiting RET kinase” (Eli Lilly and Company, priority 2020, dated 2023)
Substitutions are numbered along the chain they refer to.

How the values were obtained:
[1] = target: T1, wildtype RET kinase (N-terminal GST tagged recombinant human RET cytoplasmic domain, aa 658-end) (Homo sapiens, UniProt P07949); assay: RET enzyme assay (HTRF KinEASE TK), wildtype; assay type: biochemical; conditions: 1 mM ATP, 60 min incubation at 22° C.
T1 construct: human RET cytoplasmic domain (aa 658-end); GST (N); purchased Eurofins 14-570M
T1 sequence (P07949 658-1114 limits assumed): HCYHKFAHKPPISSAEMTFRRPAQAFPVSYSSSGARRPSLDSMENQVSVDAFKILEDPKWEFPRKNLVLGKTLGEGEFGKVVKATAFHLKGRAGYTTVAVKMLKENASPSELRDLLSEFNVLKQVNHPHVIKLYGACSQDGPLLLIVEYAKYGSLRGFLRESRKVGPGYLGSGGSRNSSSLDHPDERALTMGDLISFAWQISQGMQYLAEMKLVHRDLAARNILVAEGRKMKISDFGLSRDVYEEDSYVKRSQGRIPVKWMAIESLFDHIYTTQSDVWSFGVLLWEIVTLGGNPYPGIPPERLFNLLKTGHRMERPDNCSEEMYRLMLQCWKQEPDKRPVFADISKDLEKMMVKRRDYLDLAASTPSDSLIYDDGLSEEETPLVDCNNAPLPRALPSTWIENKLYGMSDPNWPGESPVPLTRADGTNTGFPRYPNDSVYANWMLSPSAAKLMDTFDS
Protocol: (§1) Assay A: RET Enzyme Assay
(§2) Compounds of formulas I, II, or III are screened for their ability to inhibit wildtype, V804M, and G810S mutant RET kinase using CisBio's HTRF® KinEASE™TK assay technology. N-terminal GST tagged recombinant human RET cytoplasmic domain (aa 658-end) from Eurofins ([…]; Catalog No. 14-570M) or N-terminal GST tagged recombinant human V804M mutant RET cytoplasmic domain (aa 658-end) from Millipore (1.25 nM enzyme; Catalog No. 14-760) or N-Terminal GST-tagged recombinant human G810S (aa-658-end) (1.25 nM Enzyme; produced in insect cells) is incubated with 62.5 nM TK-substrate biotin (CisBio, part of Catalog No. 62TK0PEC) and 1 mM ATP along with test compound (0.4% final DMSO in the assay) in a 1× Cisbio enzymatic buffer consisting of […], 5 mM MgCl2, 0.04% BSA and 0.05% Tween20 in a volume of 10 μL. Compounds are typically prepared in a threefold serial dilution in DMSO and added to the assay to give the appropriate final concentration. After a 40-60 min (40 min for V804M, 60 min for WT and G810S) incubation at 22° C., the reaction is quenched by adding quench solution (10 μL) containing 7.8 nM Streptavidine-XL665 and 0.5×TK-ab-Cryptate in HTRF detection buffer (all from CisBio, part of Cat. No. 62TK0PEC). After a 60-80 min incubation (60 minutes for WT, 80 minutes for V804M and G810S) at 22° C., the extent of reaction is determined using a PHERastar plate reader via HTRF detection at excitation/emission 337/665 nm. Percent of inhibition is calculated with 0% inhibition referring to control conditions containing no compound (0.4% DMSO only) and 100% inhibition represented by conditions containing no enzyme. The % inhibition values are fit to a 4 parameter logistic curve, and the determined IC50 value is defined as the estimated concentration of inhibitor at the inflexion point of the fitted curve.

[2] = target: T2, G810S mutant RET kinase (N-Terminal GST-tagged recombinant human G810S, aa-658-end) (Homo sapiens, UniProt P07949, G810S); assay: RET enzyme assay (HTRF KinEASE TK), G810S; assay type: biochemical; conditions: 1 mM ATP, 60 min incubation at 22° C.
T2 construct: recombinant human G810S (aa-658-end); GST (N); made in house; host or cells: insect cells
T2 sequence (P07949 658-1114 G810S limits assumed): T1 sequence (P07949 658-1114 limits assumed) with G153S
Protocol: as §1, §2

IC50 [1] | IC50 [2] | Compound
< 100 nM | < 100 nM | CC(C(=O)Nc1cc(C(C)(C)C(F)(F)F)no1)c1ccc(-c2nn(C(C)C)c(N)c2C(N)=O)cc1 (single isomer, unassigned; isomer 1) [Example 17, 5-Amino-1-isopropyl-3-[4-(1-[[3-(1,1,1-trifluoro-2-methylpropan-2-yl)-1,2-oxazol-5-yl]carbamoyl]ethyl)phenyl]pyrazole-4-carboxamide, Isomer 1]
< 100 nM | < 100 nM | CC(C(=O)Nc1cc(C(C)(C)C(F)(F)F)on1)c1ccc(-c2nn(C(C)C)c(N)c2C(N)=O)nc1 (single isomer, unassigned; isomer 2) [Example 64, 5-Amino-1-isopropyl-3-[5-(1-[[5-(1,1,1-trifluoro-yl)-1,2-oxazol-3-2-methylpropan-2-yl]carbamoyl]ethyl)pyridin-2-yl]pyrazole-4-carboxamide, Isomer 2]
< 100 nM | < 100 nM | CC(C(=O)Nc1cc(C(C)(C)C(F)(F)F)on1)c1ccc(-c2nn(C(C)C)c(N)c2C(N)=O)cc1 (single isomer, unassigned; isomer 1) [Example 81, 5-Amino-1-isopropyl-3-[4-(1-[[5-(1,1,1-trifluoro-2-methylpropan-2-yl)-1,2-oxazol-3-yl]carbamoyl]ethyl)phenyl]pyrazole-4-carboxamide, Isomer 1]
< 100 nM | < 100 nM | CC(C(=O)Nc1cc(-c2ccc(Cl)cc2Cl)no1)c1ccc(-c2nn(C(C)C)c(N)c2C(N)=O)cc1 (single isomer, unassigned; isomer 1) [Example 45, 5-Amino-3-[4-(1-[[3-(2,4-dichlorophenyl)-1,2-oxazol-5-yl]carbamoyl]ethyl)phenyl]-1-isopropylpyrazole-4-carboxamide, Isomer 1]
< 100 nM | < 100 nM | CC(C(=O)Nc1cc(C(C)(C)C(C)(F)F)on1)c1ccc(-c2nn(C(C)C)c(N)c2C(N)=O)cc1 (single isomer, unassigned; isomer 2) [Example 76, 5-Amino-3-[4-(1-[[5-(3,3-difluoro-2-methylbutan-2-yl)-1,2-oxazol-3-yl]carbamoyl]ethyl)phenyl]-1-isopropylpyrazole-4-carboxamide, Isomer 2]
< 100 nM | < 100 nM | CCC(C)(C)c1cc(NC(=O)C(C)c2ccc(-c3nn(C(C)C)c(N)c3C(N)=O)cn2)on1 (single isomer, unassigned; isomer 2) [Example 84, 5-Amino-1-isopropyl-3-[6-[2-[[3-(1,1-dimethylpropyl)isoxazol-5-yl]amino]-1-methyl-2-oxo-ethyl]-3-pyridyl]pyrazole-4-carboxamide, Isomer 2]
< 100 nM | < 100 nM | CC(C(=O)Nc1cc(C(C)(C)C(F)(F)F)no1)c1ccc(-c2nn(C(C)C)c(N)c2C(N)=O)cn1 (single isomer, unassigned; isomer 2) [Example 90, 5-Amino-1-isopropyl-3-[6-[1-methyl-2-oxo-2-[[3-(2,2,2-trifluoro-1,1-dimethyl-ethyl)isoxazol-5-yl]amino]ethyl]-3-pyridyl]pyrazole-4-carboxamide, Isomer 2]
< 100 nM | < 100 nM | CC(C(=O)Nc1cc(C(C)(C)C)sn1)c1ccc(-c2nn(C(C)C)c(N)c2C(N)=O)cc1 (single isomer, unassigned; isomer 2) [Example 80, 5-Amino-3-(4-[1-[(5-tert-butyl-1,2-thiazol-3-yl)carbamoyl]ethyl]phenyl)-1-isopropylpyrazole-4-carboxamide, isomer 2]
< 100 nM | < 100 nM | CC(C(=O)Nc1cc(C2(C)CC2)no1)c1ccc(-c2nn(C(C)C)c(N)c2C(N)=O)cc1 (single isomer, unassigned; isomer 1) [Example 35, 5-Amino-1-isopropyl-3-[4-(1-[[3-(1-methylcyclopropyl)-1,2-oxazol-5-yl]carbamoyl]ethyl)phenyl]pyrazole-4-carboxamide, Isomer 1]
< 100 nM | < 100 nM | CCC(C)(C)c1cc(NC(=O)C(C)c2ccc(-c3nn(C(C)C)c(N)c3C(N)=O)nc2)no1 (single isomer, unassigned; isomer 2) [Example 66, 5-Amino-1-isopropyl-3-[5-(1-[[5-(2-methylbutan-2-yl)-1,2-oxazol-3-yl]carbamoyl]ethyl)pyridin-2-yl]pyrazole-4-carboxamide, Isomer 2]
< 100 nM | < 100 nM | CC(C(=O)Nc1cc(C(C)(C)C(C)(F)F)on1)c1ccc(-c2nn(C(C)C)c(N)c2C(N)=O)nc1 (single isomer, unassigned; isomer 2) [Example 70, 5-Amino-3-[5-(1-[[5-(3,3-difluoro-2-methylbutan-2-yl)-1,2-oxazol-3-yl]carbamoyl]ethyl)pyridin-2-yl]-1-isopropylpyrazole-4-carboxamide, Isomer 2]
< 100 nM | < 100 nM | CCC(C)(C)c1cc(NC(=O)C(C)c2ccc(-c3nn(C(C)C)c(N)c3C(N)=O)cc2)no1 (single isomer, unassigned; isomer 2) [Example 52, 5-Amino-1-isopropyl-3-[4-(1-[[5-(2-methylbutan-2-yl)-1,2-oxazol-3-yl]carbamoyl]ethyl)phenyl]pyrazole-4-carboxamide, Isomer 2]
< 100 nM | < 100 nM | CCC(C)(C)c1cc(NC(=O)C(C)c2ccc(-c3nn(C(C)C)c(N)c3C(N)=O)cc2)on1 (single isomer, unassigned; isomer 1) [Example 15, 5-Amino-1-isopropyl-3-[4-(1-[[3-(2-methylbutan-2-yl)-1,2-oxazol-5-yl]carbamoyl]ethyl)phenyl]pyrazole-4-carboxamide, Isomer 1]
< 100 nM | < 100 nM | CC(C(=O)Nc1cc(C2CC(C)(C)C2)no1)c1ccc(-c2nn(C(C)C)c(N)c2C(N)=O)cc1 (single isomer, unassigned; isomer 1) [Example 98, 5-Amino-3-[4-[2-[[3-(3,3-dimethylcyclobutyl)isoxazol-5-yl]amino]-1-methyl-2-oxo-ethyl]phenyl]-1-isopropyl-pyrazole-4-carboxamide, Isomer 1]
< 100 nM | < 100 nM | CC(C(=O)Nc1cc(C(C)(C)CC(F)(F)F)on1)c1ccc(-c2nn(C(C)C)c(N)c2C(N)=O)nc1 (single isomer, unassigned; isomer 2) [Example 68, 5-Amino-1-isopropyl-3-(5-(1-oxo-1-((5-(4,4,4-trifluoro-2-methylbutan-2-yl)isoxazol-3-yl)amino)propan-2-yl)pyridin-2-yl)-1H-pyrazole-4-carboxamide, Isomer 2]
< 100 nM | < 100 nM | CC(C(=O)Nc1cc(-c2ccc(Cl)cc2Cl)no1)c1ccc(-c2nn(C(C)C)c(N)c2C(N)=O)cn1 (single isomer, unassigned; isomer 2) [Example 94, 5-Amino-1-isopropyl-3-[6-[2-[[3-(2,4-dichlorophenyl)isoxazol-5-yl]amino]-1-methyl-2-oxo-ethyl]-3-pyridyl]pyrazole-4-carboxamide, Isomer 2]
